Results as given in ChEMBL document CHEMBL1123070, “Conformational properties of central nervous system active thyrotropin releasing hormone analogues: probing structure-activity relationships at the molecular level” (1985).

species on record: Mus musculus; assay: Relative CNS activity against reserpine hypothermia in mice relatived to TRH; format: functional, Central nervous system

SMILES	Relative activity
NC(=O)[C@H]1CCCN1C(=O)[C@H](Cc1c[nH]cn1)NC(=O)c1nc(O)nc(O)c1Br	0.7
CCc1c(O)nc(O)nc1C(=O)N[C@@H](Cc1c[nH]cn1)C(=O)N1CCC[C@@H]1C(N)=O	0.09
CCCc1c(O)nc(O)nc1C(=O)N[C@@H](Cc1c[nH]cn1)C(=O)N1CCC[C@@H]1C(N)=O	0.8
C[C@@H]1SCC(C(=O)N[C@@H](Cc2c[nH]cn2)C(=O)N2CCC[C@@H]2C(N)=O)NC1=O (stereo partly specified)	17
NC(=O)[C@@H]1CCCN1C(=O)[C@@H](Cc1c[nH]cn1)NC(=O)[C@@H]1CSC(=O)N1	0.8
CC1SCC(C(=O)N[C@@H](Cc2c[nH]cn2)C(=O)N2CCC[C@@H]2C(N)=O)NC1=O (stereo partly specified)	83
